According to patent US11219692B2, “Porphyrin modified telodendrimers” (THE REGENTS OF THE UNIVERSITY OF CALIFORNIA, priority 2012, dated 2022):

Assays:
[1] = system: SKOV-3 ovarian cancer xenograft; experiment: In vivo therapeutic study (PTT/PDT with or without DOX); design: species or system nude mice; conditions: DOX 2.5 mg/kg, NP 25 mg/kg, light 0.25 W cm^−2 for 2 min; versus PBS control
Description: Transgenic mice with mammary cancer (FVB/n Tg(MMTV-PyVmT) and nude mice bearing SKOV-3 ovarian cancer xenograft were used for the in vivo therapeutic studies. When tumor volumes reached 4-5 mm in transgenic mice, crosslinked NPs with and without 2.5 mg/kg DOX were injected via tail vein once per week for 3 doses. After 24 hrs, tumors were illuminated with a diode laser system (Applied Optronics, Newport, Conn.) at 690 nm under general anaesthesia. […] Tumor temperatures were recorded with an infrared camera (Flir). Intratumoral ROS production after irradiation was measured using 2′,7′-dichlorofluorescin diacetate (DCF) mixed with 100 μL of tissue lysates derived from tumors treated with NPs and PBS. In some cases, the blood of the mice was drawn and the ROS and heat production in blood after irradiation were measured at predetermined time points. The hemolysis was also followed. Tumor volume was measured twice a week and mice were sacrificed once tumor size reached 1000 mm^3. Tumors were harvested for histopathological evaluation 24 hours post-irradiation. The SKOV-3 ovarian cancer xenograft model was established by injecting one million cells subcutaneously at lower flank area. […] Tumor sizes and body weight were measured twice a week, while mice were monitored daily for potential signs of toxicity. […]

[2] = system: SKOV-3 ovarian cancer cells; experiment: Cytotoxicity under dark conditions; format: cell-based, human; conditions: up to 1.0 mg/mL, 2 hrs exposure plus 22 hrs
Source text: K9TCC-Pu-In and 5637 bladder cancer cell lines and SKOV-3 ovarian cancer cell lines were used to evaluate the photosensitizing function of nano-porphyrins. […] 5-aminolevulinic acid (5-ALA), the traditional photodynamic diagnosis/therapy agent, was used as a control. In another experiments, DOX loaded nanoporphyrins were used to treat the cancer cells followed by light exposure. […]

Row | Compound | tumor growth [1] | cytotoxicity without light irradiation [2]
1 | COc1cccc2c1C(=O)c1c(O)c3c(c(O)c1C2=O)C[C@@](O)(C(=O)CO)C[C@@H]3O[C@H]1C[C@H](N)[C@H](O)[C@H](C)O1 [free DOX, doxorubicin] | slower tumor growth | 
2 | pyropheophorbide-a [free Por] |  | significant cytoxicity
